Assay results reported in PMC7867085, “In Vitro and In Vivo Antitumor Activity of Indolo[2,3-b] Quinolines, Natural Product Analogs from Neocryptolepine Alkaloid” (Molecules, 2021).

Key:
[1] = test system: Ehrlich ascites carcinoma (EAC) cells; assay: In vitro cytotoxic activity, trypan blue dye exclusion; assay type: cell-based, mice; conditions: 3 h incubation at 37 °C
Procedure: The synthesized indoloquinoline analogs 6a–d were evaluated for their cytotoxic activity against Ehrlich ascites carcinoma (EAC), as depicted in Table 1. The EAC cells used in this study were supplied by National Cancer Institute, Cairo, Egypt. The cells were maintained in vivo in Swiss Albino female mice by intraperitoneal transplantation (0.2 mL of 2 × 10^6 cells/mL). EAC cells were aspirated from the peritoneal cavity of mice, washed with saline and given intraperitoneally to develop ascites tumor. Trypan blue dye exclusion technique was used to figure the viability percentage of EAC cells to assay the cytotoxic activity of the studied compounds. In brief, under completely sterile conditions, EAC cells were separated away from the mice abdomens. Hank’s balanced salt solution (HBSS) was used to wash the separated cells. Cells were put in a cooling centrifuge at 1500 rpm for 15 min; the produced granules were put back into suspension using HBSS, the mentioned steps were done in triplicate. Finally, a measured volume of RPMI 1640 was used to suspend the cells, followed by the addition of 10% fetal bovine serum, 10 µg/mL streptomycin and 100 U/mL penicillin. Consequently, the cell count was adjusted to 2 × 10^6 cells/mL from the prepared diluted cell suspension 0.2 mL was titrated in 96 flat-bottomed tissue culture plates. Serial concentrations of each tested compound were prepared and added in triplicate and incubated at 37 °C for 3 h in a 5% CO2 atmosphere. The IC50 parameter (half-maximum inhibitory concentration) was calculated using Trypan blue dye exclusion test, and then the cytotoxic effect was evaluated using control EAC cells. Thalidomide was used as a reference drug alongside the parent natural compound neocryptolepine I for comparison. Thalidomide was used as a reference drug because its mechanism of action is expected to be similar to the mechanism of action of neocryptolepine analogs as its anticancer action may be based on its antiangiogenic action, resulting from specific DNA intercalation as well as induce cell cycle arrest.
The percentage of EAC cell death of the synthesized derivatives was evaluated by trypan blue exclusion assay. In addition, the compounds 6a–d, as well as the reference drug thalidomide and the parent natural compound neocryptolepine (I), were evaluated through eight concentration levels. It is worth noting that this cytotoxicity was dose-dependent when compared to the reference drug, thalidomide and the control, which was treated with the corresponding dilutions of DMSO.
As a preparation step to perform cytotoxicity assay against the EAC cell line, thalidomide, parent neocryptolepine and the indoloquinoline compounds a 6a, 6b, 6c and 6d were dissolved in DMSO/saline (0.3:0.7) to prepare a solution of 10 mmol concentration. The stock solutions were stored at 4 °C and were used all over the assay. EAC cells were supplied by the National Cancer Institute, Cairo, Egypt. The cells were maintained in vivo in Swiss albino female mice by intraperitoneal transplantation (0.2 mL of 2 × 10^6 cells/mL). EAC cells were aspirated from the peritoneal cavity of mice, washed with saline, and given intraperitoneally to develop ascites tumor.
Trypan blue dye exclusion technique was used to figure the viability percentage of EAC cells to assay the cytotoxic activity of the studied compounds. In brief, under completely sterile conditions, EAC cells were separated away from the mice’s abdomen. Hank’s balanced salt solution (HBSS) was used to wash the separated cells. The cells were put in a cooling centrifuge at 1500 rpm for 15 min; the produced granules were put back into suspension using HBSS, the mentioned steps were done in triplicate. Finally, a measured volume of RPMI 1640 was used to suspend the cells, followed by the addition of 10% fetal bovine serum, 10 µg/mL streptomycin and 100 U/mL penicillin and the cell count was adjusted to 2 × 10^6 cells/mL. […]

[2] = test system: EAC cells; assay: Flow cytometric analysis of cell cycle distribution of EAC cells from treated mice; assay type: in vivo; conditions: EAC bearing mice, 100 mg/kg for 5 days; for Apoptotic Cells (sub-G1) / Non-Apoptotic Cells G0/G1 / Non-Apoptotic Cells G2/M / Non-Apoptotic Cells S: percentage of cells
Excerpt: Flow cytometry is a technique that gives a clue to the mechanism by which cytotoxic agents affect the cell cycle by sorting and analyzing cells based on their content of DNA. Flow cytometry was used to further evaluate the effects of the indoloquinoline compounds modes-of-action to the cellular level, and we extended our studies on the cell cycle effects. To know whether cell cycle changes were aligned with the inhibition of cell growth, the cell cycle phase distribution was examined via flow cytometry. The cell cycle was analyzed in EAC-bearing mice treated with indoloquinoline analogs 6a, 6b, 6c and 6d (at a dose of 100 mg/kg for 5 constitutive days).
Flow cytometry was used to calculate the percentage of cells in each phase of the cell cycle in both positive control (exposed to 0.3% DMSO) and treated cells, results illustrated in (Table 10 and Figure 2). The influence of indoloquinoline derivatives on EAC cells indicated noticeable cell cycle specificity. In comparison with the positive control group, an appreciable change in the cell cycle occurred in giving the studied compounds. The sub-G1 population indicated apoptotic-associated chromatin degradation.
Fresh tumor tissue specimens from treated and untreated groups were transported to our laboratory in isotonic saline. The specimens were prepared following these steps: • The material was washed with isotone tris EDTA buffer. Then, the cell suspension was centrifuged at 1800 rpm for 10 min; the supernatant was then separated; • The cell is then fixed in ice-cold 96–100% ethanol (BDH) in approximately 1 mL for each sample; • Two milliliters of phosphate buffer solution (PBS) were used to wash the sample, which was recentrifuged at 1500 rpm for 5 min then the supernatant was thrown away; • Granules of the Tumor cells were put back into suspension using 200–500 µL of PBS. Into polystyrene tube, 100 µL of the suspension was transferred and then stained with 1.5 mL of propidium iodide. The tube is kept at 4 °C in a dark place for one hour; • The sample was run in the flow cytometer within 30 min after the addition of propidium iodide.
The flow cytometer was carried out with FACS caliber flow cytometer (Becton Dickinson, Sunnyvale, CA, USA) equipped with a compact air cocked low-power 15 m watt argon ion laser beam (488 nm). The average number of evaluated nuclei per specimen 20,000, and the number of nuclei scanned was 120 per second. DNA histogram derived from flow cytometry was obtained with a computer program for Dean and Jett’s mathematical analysis. Data analysis was conducted using DNA analysis program MPDFIT (Verity Software House, Inc. Box 247, Topsham, ME 04086 USA, version: 2.0, power Mac with 131,072 KB Registration No.: 42000960827-16193213 Date made: 16 September 1996). This software calculated the CV around the G0/G1 peak and the percentage of cells in each phase (G0/G1, S and G2/M) of the DNA cell cycle for each sample.

Row | Compound | IC50 [1] [nM] | increase of G2/M fraction relative to positive control [2] [%] | increase of cells in S-phase relative to positive control [2] [%] | increase of sub-G1 group as compared to control [2] [%] | reduction of G0/G1 fraction relative to positive control [2] | Apoptotic Cells (sub-G1) [2] | Non-Apoptotic Cells G0/G1 [2] | Non-Apoptotic Cells G2/M [2] | Non-Apoptotic Cells S [2] | reduction of S-phase fraction relative to positive control [2] | IC50 ([1]; Mus musculus, Ehrlich) [nM] | increase of G0/G1 cell population relative to positive control [2] [%] | reduction of G2/M fraction relative to positive control [2] [%]
1 | 5(5-Methyl-5H-indolo[2,3-b] quinolin-11-ylamino) Pyrimidine-2,4(1H,3H)-dione [Compound 6c] | 0.33 | ~269.5 | ~411.3 | 683 | about 95.7% | 12.30 ± 0.15 | 3.30 ± 0.15 | 56.20 ± 0.1 | 40.50 ± 2.41 | – | – | – | –
2 | 5-Methyl-N-(4-methylpiperazin-1-yl)-5H-indolo[2,3-b] Quinolin-11-amine [Compound 6d] | 0.15 | 263.3 | – | 975 | 46% | 16.88 ± 0.6 | 41.30 ± 0.31 | 55.26 ± 0.06 | 3.44 ± 0.27 | 56.6% | – | – | –
3 | Cn1c2nc3ccccc3c-2c(Nc2ccc(Br)cc2F)c2ccccc21 [Compound 6a, N-(4-Bromo-2-fluorophenyl)-5-methyl-5H-indolo[2,3-b] Quinolin-11-amine] | – | – | – | 106 | – | 3.23 ± 0.01 | 90.27 ± 6.35 | 4.61 ± 0.6 | 5.12 ± 0.36 | about 35.3% | 0.17 | 17.4 | 69.7
4 | Cn1c2nc3ccccc3c-2c(NCCc2c[nH]c3ccccc23)c2ccccc21 [Compound 6b, N-(2-(1H-Indol-3-yl)ethyl)-5-methyl-5H-indolo[2,3-b] Quinolin-11-amine] | – | 26.2 | – | 1452 | – | 24.36 ± 0.01 | 78.44 ± 0.04 | 19.21 ± 0.09 | 2.35 ± 0.13 | about 70.3% | 0.064 | 2 | –
